Measured values reported in article PMC10714399, “Open Source Antibiotics: Simple Diarylimidazoles Are Potent against Methicillin-Resistant Staphylococcus aureus” (ACS Infectious Diseases, 2023).
Converted amounts (≈) assume the structure as drawn. “Also recorded” adds a separate entry of the source.

System: Staphylococcus aureus NCTC 13373 (mecA-positive; methicillin-resistant)
Test: In vitro antibacterial activity, MIC (UCL School of Pharmacy assay), MRSA
Format: cell-based
Details: not given
Outline: (§1)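 Strains: MRSA NCTC 13373, MSSA ATCC 25923, vanA E. faecalis ATCC 51299. Overnight agar growth suspended in PBS, A600 0.1, diluted 1:100 into isosensitest broth; 2-fold compound dilutions 32–0.03 μg/mL, ≤2% DMSO. Vancomycin QC.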

Row | MRSA MIC [µg/mL] | SMILES | activity against MRSA, in words
1 |  | c1cncc(-c2nc3n(c2-c2ccc4occc4c2)CCC3)c1 [compound 861] | inactive
2 |  | c1cc(-c2nc3n(c2-c2ccc4occc4c2)CCC3)ccn1 [compound 862] | inactive
3 |  | c1ccc(-c2nc3n(c2-c2ccc4occc4c2)CCC3)cc1 [compound 869] | inactive
4 | 8 | Fc1ccc(Nc2c(-c3ccccn3)nc3sccn23)cc1 [compound 984] | 

Same assay, conditions: Staphylococcus aureus, 16 h; read-out: MRSA MIC

Row | MIC [µg/mL] | SMILES
5 | 2 (≈ 5.77 µM) | CCCN(c1ccc(F)cc1)c1c(-c2ccccn2)nc2ccccn12 [compound 982]

Same assay, conditions: Staphylococcus aureus; read-out: MRSA MIC

Row | SMILES | MIC [µg/mL]
6 | c1cc(-c2nc3n(c2-c2ccc4occc4c2)CCC3)ccn1 [compound 862] | > 32
7 | c1ccc(-c2nc3n(c2-c2ccc4occc4c2)CCC3)cc1 [compound 869] | > 32

Next, values leading:

Row | MIC [µg/mL] | SMILES
8 | > 32 | c1cncc(-c2nc3n(c2-c2ccc4occc4c2)CCC3)c1 [compound 861]
9 | 2 (≈ 5.77 µM) | CCCN(c1ccc(F)cc1)c1c(-c2ccccn2)nc2ccccn12 [compound 982]

System: S. aureus ATCC 25923 (methicillin-susceptible)
Test: In vitro antibacterial activity, MIC (UCL), MSSA
Format: cell-based, Staphylococcus aureus
Details: not given
Outline: as §1

Row | MSSA MIC [µg/mL] | SMILES
10 | 4 | Fc1ccc(Nc2c(-c3ccccn3)nc3sccn23)cc1 [compound 984]

Same assay, conditions: Staphylococcus aureus; read-out: MSSA MIC

Row | MIC [µg/mL] | SMILES
11 | 2 (≈ 5.77 µM) | CCCN(c1ccc(F)cc1)c1c(-c2ccccn2)nc2ccccn12 [compound 982]

System: Enterococcus faecalis ATCC 51299 (vanA-positive; vancomycin-resistant)
Test: In vitro antibacterial activity, MIC (UCL), VRE
Format: cell-based
Details: not given
Outline: as §1

Row | VRE MIC [µg/mL] | SMILES
12 | 4 | CCCN(c1ccc(F)cc1)c1c(-c2ccccn2)nc2ccccn12 [compound 982]
13 | 8 | Fc1ccc(Nc2c(-c3ccccn3)nc3sccn23)cc1 [compound 984]

Same assay, conditions: read-out: VRE MIC

Row | SMILES | MIC [µg/mL]
14 | c1cc(-c2nc3n(c2-c2ccc4occc4c2)CCC3)ccn1 [compound 862] | > 32
15 | c1ccc(-c2nc3n(c2-c2ccc4occc4c2)CCC3)cc1 [compound 869] | > 32

The next lines start with the values.

Row | MIC [µg/mL] | SMILES
16 | > 32 | c1cncc(-c2nc3n(c2-c2ccc4occc4c2)CCC3)c1 [compound 861]
17 | 4 (≈ 11.5 µM) | CCCN(c1ccc(F)cc1)c1c(-c2ccccn2)nc2ccccn12 [compound 982]

System: not listed separately
Test: Aqueous solubility
Format: physicochemical
Details: thermodynamic from solid; read-out: Aqueous Solubility

Row | solubility [µM] | SMILES
18 | 3 (≈ 1.04 µg/mL) | CCCN(c1ccc(F)cc1)c1c(-c2ccccn2)nc2ccccn12 [compound 982]

System: not listed separately
Test: Human plasma protein binding (PPB)
Format: in vitro ADME
Details: human, plasma; read-out: Human PPB (converted)

Row | fraction unbound | SMILES
19 | 0.007 | CCCN(c1ccc(F)cc1)c1c(-c2ccccn2)nc2ccccn12 [compound 982]

System: not listed separately
Test: Rat hepatocyte intrinsic clearance
Format: in vitro ADME
Details: rat, hepatocytes; Figure 4; read-out: Rat Hep CLint

Row | hepatocyte CLint [µL/min/1e6 cells] | SMILES
20 | 108 | CCCN(c1ccc(F)cc1)c1c(-c2ccccn2)nc2ccccn12 [compound 982]

System: MRC-5SV2 (human lung fibroblast cell line)
Test: Toxicity against MRC-5SV2
Format: cell-based
Details: not given
Method: (§2) ADME and toxicity for compounds were measured according to procedures outlined in the manuscript submitted in parallel to this one;2 other procedures were used for those compounds analysed by Monash University (in vitro ADME) or UCL (toxicity), both described in the main

Row | SMILES | MRC5 TC50 [µg/mL]
21 | CCCN(c1ccc(F)cc1)c1c(-c2ccccn2)nc2ccccn12 [compound 982] | 1.5
22 | Fc1ccc(Nc2c(-c3ccccn3)nc3sccn23)cc1 [compound 984] | 2.0

System: PMM (primary mouse macrophages)
Test: Toxicity against PMM
Format: cell-based
Details: not given
Method: as §2

Row | SMILES | PMM TC50 [µg/mL]
23 | CCCN(c1ccc(F)cc1)c1c(-c2ccccn2)nc2ccccn12 [compound 982] | 0.7
24 | Fc1ccc(Nc2c(-c3ccccn3)nc3sccn23)cc1 [compound 984] | 9.9

System: HEK293 cells
Test: HEK293 toxicity, 96-well dose-response (UCL; MTT or resazurin, with or without recovery)
Format: cell-based, human
Details: not given
Method: The importance of balancing potency vs MRSA and cytotoxicity led us to examine a subset of compounds more thoroughly for toxicity against human embryonic kidney cell line HEK293. […] Dmax is a parameter that quantifies toxicity at the highest tested concentration (32 μg/mL for all compounds), calculated as reciprocal percentage of viable cells (100 – viability%), where cells either were allowed to recover or viability was measured immediately after treatment. […] Our efforts focused on trying to replicate the original toxicity experiments (by CO-ADD) with tamoxifen using a protocol modified for use with 96-well plates. Given the variability of protocols and results in the literature,[28] it was important to compare with a standard protocol we have reliably used in our own laboratories.[29]−[33] […] Truly “non-toxic” compounds might be expected to show Dmax < 50% for all experiment variations, e.g., 861. […] A large spread of Dmax values comparing recovery and non-recovery conditions larger than 20% is perhaps indicative of a mechanism of toxicity that persists beyond exposure, i.e., cytotoxic compounds that continue to induce toxicity as cells recover and restart dividing, for example, compounds 865, 870, 871, 980, and 981. […] This variability could be driven by interference of the compounds with the fluorescence readout or resorufin build-up as previously described.[27]
HEK293 cells (ATCC, UK) at passage 32 were a kind gift from Dr. Ben Allsop from the Translational Research Office at University College London. Cells were tested for mycoplasma using a MycoAlert Detection Kit (Lonza, Switzerland) as per manufacturer instructions, frozen stocks were stored in liquid nitrogen, and cells were re-tested whenever a new aliquot was thawed.
Cells were maintained in DMEM (Sigma-Aldrich, UK) supplemented with 10% heat-inactivated FBS (Sigma-Aldrich, UK), 1% GlutaMax (ThermoFisher, UK), and 1% sodium pyruvate (Lonza, UK) without antibiotics in an incubator at 37 °C and 5% CO2. Media was changed every 2 days, and cells were passaged every 3–4 days at a subcultivation ratio of 1:10, by detaching the cells with phenol-free TrypLE Express (ThermoFisher, UK), after washing with HBSS Ca^2+/Mg^2+ (ThermoFisher, UK). Up to 55 passages were used throughout the experiments.
(a) Cell seeding: At subculture, a dilute solution of cells was counted using Trypan Blue (Sigma-Aldrich, UK) and a hemocytometer. Cells were further diluted to 7000 or 50 000 cells/mL for experiments.
For recovery experiments, 700 cells (100 μL) were seeded in 96-well plates and incubated for 48 h while cells reached exponential phase.
For non-recovery experiments, 5000 cells (100 μL) were seeded in 96-well plates and incubated for 48 h while cells reached confluence. This is the same number of cells as per the CO-ADD protocol where 384-well plates were used, but we extended the growth time to 48 h to produce a similar confluency.
Stock solutions were diluted 100 times (to 1% DMSO) to 32 μg/mL in full medium (vortexed briefly) and then serially diluted using a digital pipet (Explorer, Eppendorf, Germany) at a dilution factor of 2 to a final concentration of […].
(c) Dosing experiments: At the specified time after seeding, media was removed from cells, cells were washed with HBSS Ca^2+/Mg^2+ (100 μL), and 100 μL of diluted compounds were added as per Supporting Information - Biology, Figure S4, and incubated for 24 h.
After treatment, solutions were removed, and cells were washed with HBSS Ca^2+/Mg^2+. For non-recovery experiments, viability was determined immediately as described below.
For recovery experiments, fresh media was added to plates (100 μL) and cells were returned to the incubator for another 72 h, after which viability was recorded as described below.
i. MTT assay: 3-[4,5-Dimethylthiazol-2-yl]-2,5-diphenyltetrazolium bromide (MTT) (Sigma-Aldrich, UK) was dissolved in sterile PBS at 5 mg/mL with sonication (20 min), protected from light. […]

Row | SMILES | HEK293 toxicity classification, in words
25 | c1cncc(-c2nc3n(c2-c2ccc4occc4c2)CCC3)c1 [compound 861] | least toxic
26 | c1cc(-c2nc3n(c2-c2ccc4occc4c2)CCC3)ccn1 [compound 862] | least toxic; also recorded: non-toxic
27 | c1ccc(-c2nc3n(c2-c2ccc4occc4c2)CCC3)cc1 [compound 869] | least toxic

Same assay, conditions: 32 μg/mL

Row | SMILES | spread of Dmax values comparing recovery and non-recovery conditions
28 | c1ccc(-c2nc3n(c2-c2ccc4occc4c2)CCC3)cc1 [compound 869] | small difference
29 | CCCN(c1ccc(F)cc1)c1c(-c2ccccn2)nc2ccccn12 [compound 982] | small difference
30 | Fc1ccc(Nc2c(-c3ccccn3)nc3sccn23)cc1 [compound 984] | small difference

Same assay, conditions: at highest tested concentration 32 μg/mL, all experiment variations

Row | SMILES | Dmax (100 – viability%) [%]
31 | c1cncc(-c2nc3n(c2-c2ccc4occc4c2)CCC3)c1 [compound 861] | < 50

Same assay, conditions: no recovery, MTT

Row | SMILES | toxicity in the acute exposure by MTT
32 | c1cc(-c2nc3n(c2-c2ccc4occc4c2)CCC3)ccn1 [compound 862] | more than 50%
